Consider 2 compounds from ChEMBL document CHEMBL1149019, “Antineoplastic agents, 120. Pancratium littorale” (1986).

Each structure is given as a SMILES string. ≈ marks a conversion by molar mass, not a printed value.

Assay type in all cases: functional
The test system of assay [1] is P388. In words: In vivo cytotoxicity against mouse P388 cells at 25 mg/kg relative to control.
Assay [2] in a line: Cytotoxicity against mouse 9PS cells. The settings on record: read-out: ED50 (the source's name).
Assay [3] relates to P388. Put plainly: In vivo cytotoxicity against mouse P388 cells at 12.5 mg/kg relative to control.
Assay [4] relates to P388. Put plainly: In vivo cytotoxicity against mouse P388 cells at 0.75 to 6 mg/kg relative to control. The settings on record: dose mg/kg 0.75-6.
Assay [5] deals with M5076. In words: In vivo antitumor activity against mouse M5076 cells assessed as life extension at 0.38 to 3 mg/kg. As to conditions: dose mg/kg 0.38-3.
Assay [6] relates to P388. In words: In vivo antitumor activity against mouse P388 cells assessed as life extension at 0.75 to 12.5 mg/kg. As to conditions: dose mg/kg 0.75-12.5.
Assay [7] concerns M5076. In words: In vivo cytotoxicity against mouse M5076 cells at 0.38 to 3 mg/kg relative to control. The settings on record: dose mg/kg 0.38-3.

On to `O=C1N[C@@H]2C(=C[C@H](O)[C@@H](O)[C@H]2O)c2cc3c(cc21)OCO3`, for which the T/C with P388 [1] and with P388 [3] was 161 each time. In addition, the EC50 in assay [2] amounted to 0.02 µg/mL (≈ 0.0687 µM).
As to `O=C1N[C@H]2[C@H](O)[C@H](O)[C@@H](O)[C@H](O)[C@@H]2c2cc3c(c(O)c21)OCO3` [PANCRATISTATIN], the figures for the T/C in the assay with P388 [4], with P388 [3] and with M5076 [7] were 138, 206 and 153, respectively. In addition, the Activity with M5076 [5] was found to be 53%; in the assay with P388 [6], 38%. The EC50 in assay [2] came to 0.01 µg/mL (≈ 0.0307 µM).
